In experiment [1] the test system is ICR mice. Briefly: 52° C. warm-water tail-flick test, acute morphine tolerance. It is filed as in vivo. As to conditions: oral administration following subcutaneous injection of morphine. As for the experimental part:
Basal nociception and morphine-induced antinociception were studied using the 52° C. warm-water tail-flick test. In brief, mice were held over the water bath and one third of the distal portion of the tail was immersed into the water. The latency to a quick tail-flick response was recorded as a base-line measurement. Any mouse not responding within 5 sec was excluded from further experiment. To prevent tissue damage, a cut-off time of 12 sec was applied. Morphine-induced antinociception was evaluated 30 min after the injection of a testing dose of morphine (10 mg/kg s.c.), and expressed as the percentage of maximal possible effect (% MPE) according to the following formula: % MPE=100×(postdrug latency−predrug latency)/(cut off−predrug latency)
To induce acute tolerance and dependence, separate groups of three ICR mice (20-25 g) were treated with a large dose of morphine (100 mg/kg s.c.). Maximal morphine tolerance and dependence peaked at approximately 4 to 6 h. Mice in the control group received an equal volume of saline. Tolerance to opioids was assessed 4.5 h later by monitoring the antinociceptive effect produced by a test dose of morphine (10 mg/kg, s.c.). The presence of opioid tolerance was signified by a significant reduction of antinociceptive effect. […] Mice were immediately placed inside glass cylinders, and naloxone-induced vertical jumps were recorded for 15 min. […]
In general terms: In hot-plate and tail-flick tests a longer latency is read as antinociception.

Experiment [2] concerns ICR mice. The experiment in a line: Hot plate test, acute morphine tolerance. Type of experiment: in vivo. The conditions noted are these: oral administration following subcutaneous injection of morphine. As for the experimental part: For assessment of response latencies to thermal stimulus in mice, a Cold/Hot Plate Analgesia Meter (Ugo Basile, Comerio, Italy) was used. In this study, mice were placed on a hot plate that was thermostatically maintained at 55±1° C. The nociceptive response was evaluated as the latency to the first licking or lifting of the rear paws or escape jumping. Mice were removed from the hot plate immediately after displaying the response and a cut-off time of 30 sec was set to prevent tissue damage. The anti-nociceptive effect was measured using the same percentage of maximal possible effect (% MPE) as above.
To induce acute tolerance and dependence, separate groups of three ICR mice (20-25 g) were treated with a large dose of morphine (100 mg/kg s.c.). Maximal morphine tolerance and dependence peaked at approximately 4 to 6 h. Mice in the control group received an equal volume of saline. Tolerance to opioids was assessed 4.5 h later by monitoring the antinociceptive effect produced by a test dose of morphine (10 mg/kg, s.c.). The presence of opioid tolerance was signified by a significant reduction of antinociceptive effect. To examine dependence on opioids, mice were challenged with naloxone (10 mg/kg i.p.) 5h after the administration of morphine (100 mg/kg s.c.). Mice were immediately placed inside glass cylinders, and naloxone-induced vertical jumps were recorded for 15 min. […]

On to `COc1cc(C=CC(=O)CC(=O)C=Cc2ccc(O)c(OC)c2)ccc1O` [unformulated curcumin, 1,7-bis-(4-hydroxy-3-methoxyphenyl)-1,6-heptadiene-3,5-dione], for which the “Analgesia in tail-flick test” value in experiment [1] is listed as “minimal effect”. In addition, the “Analgesia in hot plate test” value in experiment [2] was “minimal effect”.
